Assay results taken from PubChem BioAssay (NCI).
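In this assay, cells in 96-well plates receive the compound at five concentrations for 48 hours. Endpoints are linearly interpolated between the surrounding concentrations. Definition used: TGI = concentration required for complete inhibition of growth.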

How the values were obtained:
Assay in all cases: NCI tumour cell line growth inhibition, 48 h
[1] = tested on: TK-10 renal
[2] = tested on: ACHN renal
[3] = tested on: SR leukemia
[4] = tested on: KM12 colon
[5] = tested on: COLO 205 colon
[6] = tested on: UACC-257 melanoma
[7] = tested on: EKVX NSCLC
[8] = tested on: SK-OV-3 ovarian
[9] = tested on: MALME-3M melanoma
[10] = tested on: SNB-19 CNS
[11] = tested on: SF-539 CNS
[12] = tested on: NCI-H226 lung
[13] = tested on: CCRF-CEM leukemia
[14] = tested on: K-562 leukemia
[15] = tested on: MDA-MB-435
[16] = tested on: HCT-15 colon
[17] = tested on: MCF7 breast
[18] = tested on: SW-620 colon
[19] = tested on: NCI/ADR-RES ovarian
[20] = tested on: SNB-75 CNS
[21] = tested on: 786-0 renal
[22] = tested on: MDA-N
[23] = tested on: HOP-92 NSCLC
[24] = tested on: RPMI-8226 leukemia
[25] = tested on: SK-MEL-5 melanoma
[26] = tested on: OVCAR-5 ovarian
[27] = tested on: M14 melanoma
[28] = tested on: LOX IMVI melanoma
[29] = tested on: A549 NSCLC
[30] = tested on: UACC-62 melanoma
[31] = tested on: HCC-2998 colon
[32] = tested on: HT29 colon
[33] = tested on: OVCAR-3 ovarian
[34] = tested on: U251 CNS
[35] = tested on: NCI-H460 lung
[36] = tested on: NCI-H23 lung
[37] = tested on: HCT-116 colon
[38] = tested on: MDA-MB-231 breast
[39] = tested on: SK-MEL-2 melanoma
[40] = tested on: HOP-62 NSCLC
[41] = tested on: OVCAR-8 ovarian
[42] = tested on: SN12C renal
[43] = tested on: MOLT-4 leukemia
[44] = tested on: UO-31 renal
[45] = tested on: PC-3 prostate
[46] = tested on: SK-MEL-28 melanoma
[47] = tested on: SF-295 CNS
[48] = tested on: A498 renal
[49] = tested on: IGROV1 ovarian
[50] = tested on: BT-549 breast
[51] = tested on: HS 578T breast
[52] = tested on: SF-268 CNS
[53] = tested on: HL-60(TB) leukemia
[54] = tested on: NCI-H522 lung
[55] = tested on: DU-145 prostate
[56] = tested on: CAKI-1 renal
[57] = tested on: RXF 393 renal
[58] = tested on: OVCAR-4 ovarian

Cc1ccc(S(=O)(=O)N(CCN)c2cc3c4c(c2)Oc2cccc5c2C4c2c(cccc2O3)O5)cc1
TGI [1]: > 100 µM
TGI [2]: > 100 µM
TGI [3]: > 100 µM
TGI [4]: > 100 µM
TGI [5]: 57.9 µM
TGI [6]: 98.4 µM
TGI [7]: 29 µM
TGI [8]: > 100 µM
TGI [9]: 22.2 µM
TGI [10]: > 100 µM
TGI [11]: 50 µM
TGI [12]: 24.8 µM
TGI [13]: 57.9 µM
TGI [14]: > 100 µM
TGI [15]: 60.3 µM
TGI [16]: > 100 µM
TGI [17]: 47.8 µM
TGI [18]: > 100 µM
TGI [19]: 22.5 µM
TGI [20]: 25.1 µM
TGI [21]: 30.2 µM
TGI [22]: 67.6 µM
TGI [23]: 70.8 µM
TGI [24]: > 100 µM
TGI [25]: 45.5 µM
TGI [26]: 62.1 µM
TGI [27]: 66.6 µM
TGI [28]: 73.4 µM
TGI [29]: > 100 µM
TGI [30]: > 100 µM
TGI [31]: > 100 µM
TGI [32]: 28.6 µM
TGI [33]: 42.2 µM
TGI [34]: > 100 µM
TGI [35]: > 100 µM
TGI [36]: > 100 µM
TGI [37]: 30.5 µM
TGI [38]: 40.9 µM
TGI [39]: 47.7 µM
TGI [40]: 28.7 µM
TGI [41]: 23.2 µM
TGI [42]: > 100 µM
TGI [43]: > 100 µM
TGI [44]: > 100 µM
TGI [45]: 35.7 µM
TGI [46]: 66.3 µM
TGI [47]: 54.5 µM
TGI [48]: > 100 µM
TGI [49]: 23.7 µM
TGI [50]: > 100 µM
TGI [51]: 38.2 µM
TGI [52]: 27.4 µM

CC(=O)NC1=NC(=O)/C(=C/c2ccccc2Cl)N1C
TGI [1]: > 100 µM
TGI [2]: > 100 µM
TGI [53]: > 100 µM
TGI [4]: > 100 µM
TGI [5]: > 100 µM
TGI [6]: > 100 µM
TGI [7]: > 100 µM
TGI [8]: > 100 µM
TGI [10]: > 100 µM
TGI [11]: > 100 µM
TGI [12]: > 100 µM
TGI [54]: > 100 µM
TGI [13]: > 100 µM
TGI [15]: > 100 µM
TGI [16]: > 100 µM
TGI [17]: > 100 µM
TGI [55]: > 100 µM
TGI [18]: > 100 µM
TGI [19]: > 100 µM
TGI [20]: > 100 µM
TGI [21]: > 100 µM
TGI [56]: > 100 µM
TGI [22]: > 100 µM
TGI [23]: > 100 µM
TGI [25]: > 100 µM
TGI [26]: > 100 µM
TGI [27]: > 100 µM
TGI [28]: > 100 µM
TGI [57]: > 100 µM
TGI [29]: > 100 µM
TGI [30]: > 100 µM
TGI [31]: > 100 µM
TGI [32]: > 100 µM
TGI [33]: > 100 µM
TGI [34]: > 100 µM
TGI [35]: > 100 µM
TGI [36]: > 100 µM
TGI [58]: > 100 µM
TGI [37]: > 100 µM
TGI [38]: > 100 µM
TGI [39]: > 100 µM
TGI [40]: > 100 µM
TGI [41]: > 100 µM
TGI [42]: > 100 µM
TGI [43]: > 100 µM
TGI [44]: > 100 µM
TGI [45]: > 100 µM
TGI [46]: > 100 µM
TGI [47]: > 100 µM
TGI [49]: > 100 µM
TGI [50]: > 100 µM
TGI [51]: > 100 µM
TGI [52]: > 100 µM
